From ChEMBL document CHEMBL4402609, “Optimization of Hydantoins as Potent Antimycobacterial Decaprenylphosphoryl-β-d-Ribose Oxidase (DprE1) Inhibitors” (J Med Chem, 2020)

Assay: AUC in C57BL/6J mouse blood infected with Mycobacterium tuberculosis H37Rv at 200 mg/kg, po administered once daily for 4 consecutive days starting from 5 days post infection and measured after 24 hrs post dose
Format: ADME, organism-based
Design: dose 200 mg/kg, time < 24 hr, route oral
Conditions: not given
Compound CC1(c2ccc(S(N)(=O)=O)cc2)NC(=O)N(CC(=O)c2ccc(F)cc2F)C1=O (racemic) has an AUC at 24 h of 31400 ng·h/mL.

Assay: Cmax in C57BL/6J mouse blood infected with Mycobacterium tuberculosis H37Rv at 170 mg/kg, po administered once daily for 4 consecutive days starting from 5 days post infection
Format: ADME, organism-based
Design: dose 170 mg/kg, route oral
Conditions: not given
CC1(c2ccc(-n3cnnn3)cc2)NC(=O)N(CC(=O)c2ccc(F)cc2F)C1=O (configuration not stated) gave a Cmax of 1870 ng/mL.

Assay: Lipophilicity, log D of compound at pH 7.4 by chromatographic method
Format: physicochemical
Conditions: buffer
Work on CC1(c2ccc(C#N)cc2)NC(=O)N(CC(=O)c2cccc(OC(F)(F)F)c2)C1=O (racemic) yielded a chromatographic logD of 5.5. With CC1(c2ccc(S(N)(=O)=O)cc2)NC(=O)N(CC(=O)c2cccc(C#N)c2)C1=O (racemic) the chromatographic logD was 2.4. Cc1ccc(C(=O)CN2C(=O)NC(C)(c3ccc(C#N)cc3)C2=O)cc1 (racemic) showed a chromatographic logD of 4.73. Compound CC1(c2ccc(S(N)(=O)=O)cc2)NC(=O)N(CC(=O)c2ccccc2C(F)(F)F)C1=O (racemic) has a chromatographic logD of 3.56. For CC1(c2ccc(S(N)(=O)=O)cc2)NC(=O)N(CC(=O)c2ncc(F)cc2F)C1=O (racemic), the chromatographic logD was 2.39. For CC1(c2ccc(S(N)(=O)=O)cc2)NC(=O)N(CC(=O)c2ccc(Cl)s2)C1=O (racemic), the chromatographic logD was 3.52. Work on CC1(c2ccc(S(N)(=O)=O)cc2)NC(=O)N(CC(=O)c2cccnc2)C1=O (racemic) yielded a chromatographic logD of 3.48. With CC1(c2ccc(S(N)(=O)=O)cc2)NC(=O)N(CC(=O)c2cccc(C(F)(F)F)c2)C1=O (racemic) the chromatographic logD was 3.96. CC1(c2ccc(S(=O)(=O)NCC(F)(F)F)cc2)NC(=O)N(CC(=O)c2ccc(F)cc2F)C1=O (racemic) gave a chromatographic logD of 4.78. CC1(c2ccc(S(N)(=O)=O)cc2)NC(=O)N(CC(=O)c2ccc(F)c(F)c2)C1=O (racemic) gave a chromatographic logD of 3.34. Work on CC1(c2ccc(S(N)(=O)=O)cc2)NC(=O)N(CC(=O)c2ccc(C#N)cc2)C1=O (racemic) yielded a chromatographic logD of 2.54. CC1(c2ccc(S(N)(=O)=O)cc2)NC(=O)N(CC(=O)c2ccccn2)C1=O (racemic) showed a chromatographic logD of 4.87. With CC1(c2ccc(S(N)(=O)=O)cc2)NC(=O)N(CC(=O)c2ccc(F)c(Cl)c2)C1=O (racemic) the chromatographic logD was 3.82. CC1(c2ccc(S(N)(=O)=O)cc2)NC(=O)N(CC(=O)c2cccc(Br)c2)C1=O (racemic) showed a chromatographic logD of 3.77. CC(C)(C)C(=O)Oc1cc(F)ccc1C(=O)CN1C(=O)NC(C)(c2ccc(C#N)cc2)C1=O (racemic) gave a chromatographic logD of 5.84. COc1ccccc1C(=O)CN1C(=O)NC(C)(c2ccc(S(N)(=O)=O)cc2)C1=O (racemic) gave a chromatographic logD of 2.98. CC1(c2ccc(S(N)(=O)=O)cc2)NC(=O)N(CC(=O)c2cccc(OC(F)(F)F)c2)C1=O (racemic) showed a chromatographic logD of 4.14. With CCCCS(=O)(=O)Nc1ccc(C2(C)NC(=O)N(CC(=O)c3ccc(F)cc3F)C2=O)cc1 (racemic) the chromatographic logD was 4.96. CC1(c2ccc(S(N)(=O)=O)cc2)NC(=O)N(CC(=O)C23CC4CC(CC(C4)C2)C3)C1=O (racemic) gave a chromatographic logD of 2.52. With CC1(c2ccc(S(N)(=O)=O)cc2)NC(=O)N(CC(=O)c2cc(C(F)(F)F)cc(C(F)(F)F)c2)C1=O (racemic) the chromatographic logD was 4.9. Work on CC1(c2ccc(S(N)(=O)=O)cc2)NC(=O)N(CC(=O)c2cccc([N+](=O)[O-])c2)C1=O (racemic) yielded a chromatographic logD of 2.77. Compound CC1(c2ccc(S(N)(=O)=O)cc2)NC(=O)N(CC(=O)c2ccc(F)cc2O)C1=O (racemic) has a chromatographic logD of 3.12. Work on CC1(c2ccc(CS(C)(=O)=O)cc2)NC(=O)N(CC(=O)c2ccc(F)cc2F)C1=O (racemic) yielded a chromatographic logD of 3.54. CC1(c2ccc(S(N)(=O)=O)cc2)NC(=O)N(CC(=O)c2ccc(F)cc2F)C1=O (racemic) showed a chromatographic logD of 3.19. CC1(c2ccc(C#N)cc2)NC(=O)N(CC(=O)c2cccc(F)c2)C1=O (racemic) gave a chromatographic logD of 4.39. Compound CC1(c2ccc(C#N)cc2)NC(=O)N(CC(=O)c2ccc(F)cc2O)C1=O (racemic) has a chromatographic logD of 4.56. For CC1(c2ccc3c(c2)NC(=O)CO3)NC(=O)N(CC(=O)c2ccc(F)cc2F)C1=O (racemic), the chromatographic logD was 3.38. CC1(c2ccc(S(N)(=O)=O)cc2)NC(=O)N(CC(=O)C2CCCCC2)C1=O (racemic) showed a chromatographic logD of 3.62. CC1(c2ccc(C#N)cc2)NC(=O)N(CC(=O)c2ccccc2)C1=O (racemic) showed a chromatographic logD of 4.19. Work on CC1(c2ccc(S(N)(=O)=O)cc2)NC(=O)N(CC(=O)c2cccs2)C1=O (racemic) yielded a chromatographic logD of 2.35. In the case of CC(=O)CN1C(=O)NC(C)(c2ccc(S(N)(=O)=O)cc2)C1=O (racemic), the chromatographic logD is reported as 0.54. For CC1(c2ccc(S(N)(=O)=O)cc2)NC(=O)N(CC(=O)c2ccc(C(F)(F)F)cc2)C1=O (racemic), the chromatographic logD was 4.15. Work on Cc1ccccc1C(=O)CN1C(=O)NC(C)(c2ccc(C#N)cc2)C1=O (racemic) yielded a chromatographic logD of 4.73. CC1(c2ccc(S(N)(=O)=O)cc2)NC(=O)N(CC(=O)c2ccc(Cl)cc2Cl)C1=O (racemic) showed a chromatographic logD of 4.11. For CC1(c2ccc(C#N)cc2)NC(=O)N(CC(=O)c2ccccn2)C1=O (racemic), the chromatographic logD was 2.03. With CC1(c2ccc(S(=O)(=O)N3CCOCC3)cc2)NC(=O)N(CC(=O)c2ccc(F)cc2F)C1=O (racemic) the chromatographic logD was 4.39. In the case of CC1(c2ccc(S(=O)(=O)NC3CC3)cc2)NC(=O)N(CC(=O)c2ccc(F)cc2F)C1=O (racemic), the chromatographic logD is reported as 4.48. For CC1(c2ccc(N3CCCOC3=O)cc2)NC(=O)N(CC(=O)c2ccc(F)cc2F)C1=O (racemic), the chromatographic logD was 3.36. With Cc1ccccc1C(=O)CN1C(=O)NC(C)(c2ccc(S(N)(=O)=O)cc2)C1=O (racemic) the chromatographic logD was 3.3. Compound CC1(c2ccc(S(N)(=O)=O)cc2)NC(=O)N(CC(=O)c2ccccc2F)C1=O (racemic) has a chromatographic logD of 2.94. In the case of CNS(=O)(=O)c1ccc(C2(C)NC(=O)N(CC(=O)c3ccc(F)cc3F)C2=O)cc1 (racemic), the chromatographic logD is reported as 3.88. With COC(=O)c1ccc(C2(C)NC(=O)N(CC(=O)c3ccc(F)cc3F)C2=O)cc1 (racemic) the chromatographic logD was 4.84. CC1(c2ccc(S(N)(=O)=O)cc2)NC(=O)N(CC(=O)c2nccs2)C1=O (racemic) gave a chromatographic logD of 1.9. CC1(c2ccc(S(N)(=O)=O)cc2)NC(=O)N(CC(=O)c2ccc(F)c(C(F)(F)F)c2)C1=O (racemic) showed a chromatographic logD of 4.24. For CC1(c2ccc(NS(=O)(=O)c3ccccc3)cc2)NC(=O)N(CC(=O)c2ccc(F)cc2F)C1=O (racemic), the chromatographic logD was 4.9. Cc1cccc(C(=O)CN2C(=O)NC(C)(c3ccc(S(N)(=O)=O)cc3)C2=O)c1 (racemic) showed a chromatographic logD of 3.36. For CC1(c2ccc(C(N)=O)cc2)NC(=O)N(CC(=O)c2ccc(F)cc2F)C1=O (racemic), the chromatographic logD was 2.68. In the case of CC1(c2ccc(S(N)(=O)=O)cc2)NC(=O)N(CC(=O)c2ccc3ccccc3c2)C1=O (racemic), the chromatographic logD is reported as 3.93. In the case of CC1(c2ccc(S(N)(=O)=O)cc2)NC(=O)N(CC(=O)c2ccc(F)cc2)C1=O (racemic), the chromatographic logD is reported as 3.03. CC1(c2ccc(S(N)(=O)=O)cc2)NC(=O)N(CC(=O)c2ccncc2)C1=O (racemic) showed a chromatographic logD of 2.46. In the case of CC1(c2ccc(C#N)cc2)NC(=O)N(CC(=O)c2ccncc2)C1=O (racemic), the chromatographic logD is reported as 1.16. Compound CC1(c2ccc(S(N)(=O)=O)cc2)NC(=O)N(CC(=O)c2nc3ccccc3s2)C1=O (racemic) has a chromatographic logD of 3.78. CC1(c2ccc(C#N)cc2)NC(=O)N(CC(=O)c2ccccc2F)C1=O (racemic) gave a chromatographic logD of 4.3. Work on CC1(c2ccc(C#N)cc2)NC(=O)N(CC(=O)c2ccc(F)c(C(F)(F)F)c2)C1=O (racemic) yielded a chromatographic logD of 5.38. Compound CC1(c2ccc(C#N)cc2)NC(=O)N(CC(=O)c2ccc(Cl)s2)C1=O (racemic) has a chromatographic logD of 4.85. Work on CC1(c2ccc(S(N)(=O)=O)cc2)NC(=O)N(CC(=O)C2CC2)C1=O (racemic) yielded a chromatographic logD of 1.51. Compound Cc1cccc(C(=O)CN2C(=O)NC(C)(c3ccc(C#N)cc3)C2=O)c1 (racemic) has a chromatographic logD of 4.71. Work on CC1(c2ccc(NC(N)=O)cc2)NC(=O)N(CC(=O)c2ccc(F)cc2F)C1=O (racemic) yielded a chromatographic logD of 2.71. For C[C@@]1(c2ccc(S(N)(=O)=O)cc2)NC(=O)N(CC(=O)c2ccc(F)cc2F)C1=O, the chromatographic logD was 3.17. CC1(c2ccc(-c3nnn[nH]3)cc2)NC(=O)N(CC(=O)c2ccc(F)cc2F)C1=O (racemic) showed a chromatographic logD of 1.85. Work on CC1(c2ccc(S(N)(=O)=O)cc2)NC(=O)N(CC(=O)c2ccccc2)C1=O (racemic) yielded a chromatographic logD of 2.81. In the case of C[C@]1(c2ccc(S(N)(=O)=O)cc2)NC(=O)N(CC(=O)c2ccc(F)cc2F)C1=O, the chromatographic logD is reported as 3.17. In the case of CC1(c2ccc(S(N)(=O)=O)cc2)NC(=O)N(CC(=O)c2cccc(F)c2)C1=O (racemic), the chromatographic logD is reported as 3.08. With CC1(c2ccc(S(=O)(=O)Nc3ccccc3)cc2)NC(=O)N(CC(=O)c2ccc(F)cc2F)C1=O (racemic) the chromatographic logD was 5.03. Work on COc1ccc(C(=O)CN2C(=O)NC(C)(c3ccc(S(N)(=O)=O)cc3)C2=O)cc1 (racemic) yielded a chromatographic logD of 2.86. Compound CC1(c2ccc(C(=O)O)cc2)NC(=O)N(CC(=O)c2ccc(F)cc2F)C1=O (racemic) has a chromatographic logD of 1.49. With COc1cccc(C(=O)CN2C(=O)NC(C)(c3ccc(S(N)(=O)=O)cc3)C2=O)c1 (racemic) the chromatographic logD was 3. Work on CC1(c2ccc(C#N)cc2)NC(=O)N(CC(=O)c2cccnc2)C1=O (racemic) yielded a chromatographic logD of 1.16. Work on CC1(c2ccc(NS(=O)(=O)C(F)(F)F)cc2)NC(=O)N(CC(=O)c2ccc(F)cc2F)C1=O (racemic) yielded a chromatographic logD of 3.24. CN(C)S(=O)(=O)c1ccc(C2(C)NC(=O)N(CC(=O)c3ccc(F)cc3F)C2=O)cc1 (racemic) showed a chromatographic logD of 4.6. Cc1ccc(C(=O)CN2C(=O)NC(C)(c3ccc(S(N)(=O)=O)cc3)C2=O)cc1 (racemic) showed a chromatographic logD of 3.33.

Assay: Cmax in C57BL/6J mouse blood infected with Mycobacterium tuberculosis H37Rv at 200 mg/kg, po administered once daily for 4 consecutive days starting from 5 days post infection
Format: ADME, organism-based
Design: dose 200 mg/kg, route oral
Conditions: not given
In the case of CC1(c2ccc(S(N)(=O)=O)cc2)NC(=O)N(CC(=O)c2ccc(F)cc2F)C1=O (racemic), the Cmax is reported as 6380 ng/mL.

Assay: AUC in C57BL/6J mouse blood infected with Mycobacterium tuberculosis H37Rv at 170 mg/kg, po administered once daily for 4 consecutive days starting from 5 days post infection and measured up to 6 hrs post dose
Format: ADME, organism-based
Design: time < 6 hr, dose 170 mg/kg, route oral
Conditions: not given
Compound CC1(c2ccc(-n3cnnn3)cc2)NC(=O)N(CC(=O)c2ccc(F)cc2F)C1=O (configuration not stated) has an AUC at 6 h of 6380 ng·h/mL.

Assay: Intrinsic clearance in human microsomes assessed as per gram protein at 0.5 uM after 30 mins in presence of NADPH by LC-MS/MS analysis
Format: ADME, Microsome
Conditions: 0.5 h
With CC1(c2ccc(S(N)(=O)=O)cc2)NC(=O)N(CC(=O)c2ccc(F)cc2F)C1=O (racemic) the clearance was less than 0.4 mL/min/g.

Assay: Intrinsic clearance in mouse microsomes assessed as per gram protein at 0.5 uM after 30 mins in presence of NADPH by LC-MS/MS analysis
Format: ADME, Microsome
Conditions: 0.5 h
In the case of CC1(c2ccc(S(N)(=O)=O)cc2)NC(=O)N(CC(=O)c2ccc(F)cc2F)C1=O (racemic), the clearance is reported as 2.67 mL/min/g.
